# Measurements as given in patent US20080293683A1, “Hormone Replacement Therapy” (University of Kansas Medical Center, priority 2007, published 2008).
# pIC50: −log10 of the molar value. Values joined by “and” are separate entries in the source; they are usually repeats but may differ in a detail not shown here. Equal values may be shown once. Read-outs that look alike come from different tables or passages of the source.
# Columns and labels:
# recombinant human ERα = biological target: T1, recombinant human ERα (Homo sapiens, UniProt P03372); test: ERα binding assay: competition of [3H]E2 binding by competing estrogens; conditions: for RBAα % (relative binding affinity for ERα, of E2): calculated against E2 = 100; for RBAα/RBAβ: ratio of relative binding affinities ERα over ERβ
# T1 construct: purchased PanVera Corporation (Madison, Wis.); host or cells: baculovirus-mediated expression system
# T1 sequence (P03372 1-595): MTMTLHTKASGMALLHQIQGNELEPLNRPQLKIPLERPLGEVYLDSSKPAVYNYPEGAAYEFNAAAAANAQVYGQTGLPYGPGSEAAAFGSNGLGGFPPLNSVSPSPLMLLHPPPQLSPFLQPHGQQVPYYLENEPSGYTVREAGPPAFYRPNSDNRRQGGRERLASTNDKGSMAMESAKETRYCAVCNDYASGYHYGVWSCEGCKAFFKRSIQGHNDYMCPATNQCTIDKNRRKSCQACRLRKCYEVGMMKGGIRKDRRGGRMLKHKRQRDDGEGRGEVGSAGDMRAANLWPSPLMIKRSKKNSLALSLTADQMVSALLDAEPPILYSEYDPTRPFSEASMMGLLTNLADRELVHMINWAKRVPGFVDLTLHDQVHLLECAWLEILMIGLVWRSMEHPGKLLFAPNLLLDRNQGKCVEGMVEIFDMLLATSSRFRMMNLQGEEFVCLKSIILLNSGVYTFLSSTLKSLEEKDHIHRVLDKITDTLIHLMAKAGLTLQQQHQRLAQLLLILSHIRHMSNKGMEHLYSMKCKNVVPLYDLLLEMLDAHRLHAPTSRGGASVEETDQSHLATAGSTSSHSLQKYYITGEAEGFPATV
# Source text: (§1) The recombinant human ERα and ERβ proteins and bovine serum albumin (BSA) were obtained from PanVera Corporation (Madison, Wis.). According to the supplier, the recombinant human ERα and ERβ were produced in a baculovirus-mediated expression system, and they were soluble and functionally active, with post-translational modifications similar to those found in mammalian cells. See Reid et al., Human estrogen receptor-α: Regulation by synthesis, modification and degradation, Cell. Mol. Life.
# (§2) The following buffer solutions were used in the ER binding assays, and they were prepared beforehand and stored at 4° C. The binding buffer consisted of 10% glycerol, 2 mM dithiothreitol, 1 mg/mL BSA and 10 mM Tris-HCl at pH 7.5. The ERα washing buffer contained 40 mM Tris-HCl and 100 mM KCl (pH 7.4), but the ERG washing buffer contained only 40 mM Tris-HCl (adjusted to pH 7.4). The 50% hydroxylapatite slurry was prepared first by vigorously mixing 10 g hydroxylapatite with 60 mL of the Tris-HCl solution (50 mM, pH 7.4). Hydroxylapatite was then allowed to settle for 20 minutes at room temperature, and the supernatant was decanted. The above procedures were repeated 10 times, and afterwards hydroxylapatite was kept in the 50 mM Tris-HCl solution overnight at 4° C. Hydroxylapatite slurry was then adjusted to an approximate final concentration of 50% (v/v) using the same Tris-HCl solution and stored at 4° C., and the slurry was stable for up to several months.
# (§3) Note that all of the estrogens were initially dissolved in pure ethanol to a stock concentration of 1 mM, and then further diluted to 100 μM with 20% aqueous ethanol. […] Immediately before the addition of the ERα or ERβ protein, it was diluted in the binding buffer and mixed gently with repetitive pipettings. […] The incubation mixture was then mixed gently and thoroughly with repetitive pipettings. […] The binding mixture was incubated at room temperature for two hours. At the end of the incubation, 100 μL of the hydroxylapatite slurry was added to each tube and the tubes were incubated on ice for 15 minutes with 3 times of brief vortexing. An aliquot (1 mL) of the appropriate washing buffer was added, mixed, and centrifuged at 10,000 g for five minutes, and the supernatants were discarded. This wash step was repeated twice. Hydroxylapatite pellets were then resuspended in 200 μL ethanol (followed by another rinse with 200 μL ethanol), and then the content was transferred to scintillation vials (containing 4 mL of the scintillation fluid) for measurement of ^3H-radioactivity with a liquid scintillation counter (Packard Tri-CARB 2900 TR; Downers Grove, Ill.).
# (§4) To calculate the specific binding (pmol/mL) of the human ERα or ERβ protein at each concentration point, the following equation was used: […]
# (§5) When a lower radioligand concentration is used, the corresponding IC50 value will also be relatively lower, but when the radioligand concentration increases, the corresponding IC50 value will also increase. […] Since the RBA value is a parameter that is independent of the radioligand concentration used, we thus have placed more emphasis on the RBA values instead of the absolute IC50 values in interpreting the physiological meanings of the data from in vitro receptor competition assays.
# recombinant human ERβ = biological target: T2, recombinant human ERβ (Homo sapiens, UniProt Q92731); test: ERβ binding assay: competition of [3H]E2 binding by competing estrogens; conditions: for RBAβ (%) (relative binding affinity for ERβ, of E2): calculated against E2 = 100; for binding affinity for ERβ (in words): concentrations up to 1000 nM
# T2 construct: purchased PanVera Corporation (Madison, Wis.); host or cells: baculovirus-mediated expression system
# Source text: as §1, §2, §3, §4, §5
# T2 sequence (Q92731 whole entry): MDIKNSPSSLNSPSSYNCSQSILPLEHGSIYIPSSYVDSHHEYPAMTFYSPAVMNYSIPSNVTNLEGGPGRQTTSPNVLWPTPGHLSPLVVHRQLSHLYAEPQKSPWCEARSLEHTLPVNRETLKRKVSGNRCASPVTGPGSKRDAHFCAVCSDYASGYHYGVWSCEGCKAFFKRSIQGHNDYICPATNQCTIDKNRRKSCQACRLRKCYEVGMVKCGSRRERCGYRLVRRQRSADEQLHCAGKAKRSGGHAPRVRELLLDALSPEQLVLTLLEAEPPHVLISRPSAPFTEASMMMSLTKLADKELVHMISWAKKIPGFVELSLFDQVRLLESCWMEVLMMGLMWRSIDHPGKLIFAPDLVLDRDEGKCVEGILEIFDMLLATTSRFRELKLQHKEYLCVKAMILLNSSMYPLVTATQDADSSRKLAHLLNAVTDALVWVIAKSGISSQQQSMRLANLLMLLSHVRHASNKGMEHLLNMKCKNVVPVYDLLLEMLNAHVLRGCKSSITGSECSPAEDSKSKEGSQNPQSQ
Structure (SMILES),"RBAα % (relative binding affinity for ERα, of E2) (recombinant human ERα)",RBAα/RBAβ (recombinant human ERα),pIC50 (recombinant human ERα; read-out: ERα IC50),"RBAβ (%) (relative binding affinity for ERβ, of E2) (recombinant human ERβ)",pIC50 (recombinant human ERβ; read-out: ERβ IC50),other results
"C[C@]12CC[C@@H]3c4cc(O)c(O)cc4CC[C@H]3[C@@H]1C[C@@H](O)[C@@H]2O [2-OH-E3, 2-Hydroxyestriol]",2%,2,6.30,1,6.10,RBAα/RBAβ (recombinant human ERα; listed as 2-hydroxyestriol): about 2
"C[C@]12CC[C@@H]3c4ccc(O)c(Br)c4CC[C@H]3[C@@H]1CC[C@@H]2O [4-Br-E2, 4-Bromoestradiol]",7%,0.2,6.80,35,7.60,preference of binding affinity for ERβ over ERα (recombinant human ERβ; ERβ over ERα): about 5 fold
"COc1c(O)ccc2c1CCC1C2CCC2(C)C(=O)CCC12 (stereo not shown) [4-MeO-E1, 4-Methoxyestrone]",,,,,,pIC50 (recombinant human ERα): < 6.00; binding affinity for ERα (in words) (recombinant human ERα): did not have appreciable binding affinity; pIC50 (recombinant human ERβ): < 6.00; binding affinity for ERβ (in words) (recombinant human ERβ): did not have appreciable binding affinity
"COc1c(O)ccc2c1CCC1C2CCC2(C)C(O)CCC12 (stereo not shown) [4-MeO-E2, 4-Methoxyestradiol]",2%,2,,1,,pIC50 (recombinant human ERα): 6.15; RBAα/RBAβ (recombinant human ERα; listed as 4-methoxyestradiol): about 2; pIC50 (recombinant human ERβ): 6.05
"COc1c(O)ccc2c1CC[C@@H]1[C@@H]2CC[C@]2(C)[C@@H](O)[C@H](O)C[C@@H]12 [4-MeO-E3, 4-Methoxyestriol]",1%,1,5.90,1,6.20,
"Cc1c(O)ccc2c1CC[C@@H]1[C@@H]2CC[C@]2(C)[C@@H](O)CC[C@@H]12 [4-Methyl-E2, 4-Methylestradiol]",7% and 9%,0.3,6.90,35,7.60,
"CC12CCC3c4ccc(O)c(N)c4CCC3C1CCC2=O (stereo not shown) [4-NH2-E1, 4-Aminoestrone]",3%,,6.45,,< 6.00,binding affinity for ERα (in words) (recombinant human ERα; concentrations up to 1000 nM): very weak binding affinities; binding affinity for ERβ (in words) (recombinant human ERβ): very weak binding affinities
"CC12CCC3c4ccc(O)c([N+](=O)[O-])c4CCC3C1CCC2=O (stereo not shown) [4-NO2-E1, 4-Nitroestrone]",3%,,6.35,,< 6.00,binding affinity for ERα (in words) (recombinant human ERα; concentrations up to 1000 nM): very weak binding affinities; binding affinity for ERβ (in words) (recombinant human ERβ): very weak binding affinities
"CC12CCC3c4ccc(O)c(O)c4CCC3C1CCC2=O (stereo not shown) [4-OH-E1, 4-Hydroxyestrone]",2%,2,6.15,1,6.15,RBAα/RBAβ (recombinant human ERα; listed as 4-hydroxyestrone): about 2
"C[C@]12CC[C@@H]3c4ccc(O)c(O)c4CC[C@H]3[C@@H]1CC[C@@H]2O [4-OH-E2, 4-Hydroxyestradiol]",70%,1.3,7.80,56,7.80,RBAα/RBAβ (recombinant human ERα; listed as 4-hydroxyestradiol): about 1.3
"CC12CCC3c4ccc(O)cc4C(=O)CC3C1CCC2=O (stereo not shown) [6-Keto-E1, 6-Ketoestrone]",2%,2,6.31,1,6.05,"RBAα/RBAβ (recombinant human ERα; listed as 6-ketoestrone): about 2; RBA for ERα, % of E1 (recombinant human ERα; relative to E1): 23%; RBA for ERβ, % of E1 (recombinant human ERβ; relative to E1): 50%"
"CC12CCC3c4ccc(O)cc4C(=O)CC3C1CCC2O (stereo not shown) [6-Keto-E2, 6-Ketoestradiol]",71%,1.3,,56,,pIC50 (recombinant human ERα): 7.80; RBAα/RBAβ (recombinant human ERα; listed as 6-ketoestradiol): about 1.3; pIC50 (recombinant human ERβ): 7.80
"C[C@]12CC[C@@H]3c4ccc(O)cc4C(=O)C[C@H]3[C@@H]1CC[C@H]2O [6-Keto-E2-17α, 6-Ketoestradiol-17α]",2%,2,,1,,"pIC50 (recombinant human ERα): 6.25; RBAα/RBAβ (recombinant human ERα; listed as 6-ketoestradiol-17α): about 2; RBA for ERα, % of E2-17α (recombinant human ERα; relative to E2-17α): 9%; pIC50 (recombinant human ERβ): 5.95; RBA for ERβ, % of E2-17α (recombinant human ERβ; relative to E2-17α): 25%"
"CC12CCC3c4ccc(O)cc4C(=O)CC3C1CC(O)C2O (stereo not shown) [6-Keto-E3, 6-Ketoestriol]",25%,8.3,7.35,3,6.50,"RBAα/RBAβ (recombinant human ERα; listed as 6-ketoestriol): about 8.3; RBA for ERα, % of E3 (recombinant human ERα; relative to E3): 224%; RBA for ERβ, % of E3 (recombinant human ERβ; relative to E3): 8%"
"C[C@]12CC[C@@H]3c4ccc(O)cc4[C@@H](O)C[C@H]3[C@@H]1CC[C@@H]2O [6α-OH-E2, 6α-Hydroxyestradiol]",6%,1.5,6.70,4,6.60,RBAα/RBAβ (recombinant human ERα; listed as 6α-hydroxyestradiol): about 1.5
"C[C@]12CC[C@@H]3c4ccc(O)cc4[C@H](O)C[C@H]3[C@@H]1CC[C@@H]2O [6β-OH-E2, 6β-Hydroxyestradiol]",1%,0.5,6.10,2,6.25,
"C[C@]12C[C@@H](O)[C@@H]3c4ccc(O)cc4CC[C@H]3[C@@H]1CCC2=O [11α-OH-E1, 11α-Hydroxyestrone]",,,< 6.00,,< 6.00,
"C[C@]12C[C@@H](O)[C@@H]3c4ccc(O)cc4CC[C@H]3[C@@H]1CC[C@@H]2O [11α-OH-E2, 11α-Hydroxyestradiol]",,,< 6.00,,< 6.00,
"C#C[C@]1(O)CC[C@H]2[C@@H]3CCc4cc(O)ccc4[C@H]3[C@@H](OC)C[C@@]21C [11β-MeO-EE2, 11β-Methoxyethynylestradiol]",35%,1.8,7.50,20,7.35,RBAα/RBAβ (recombinant human ERα; listed as 11β-methoxyethynyl estradiol): about 1.8
"C[C@]12C[C@H](O)[C@@H]3c4ccc(O)cc4CC[C@H]3[C@@H]1CCC2=O [11β-OH-E1, 11β-Hydroxyestrone]",,,< 6.00,,< 6.00,
"CC12CC(O)C3c4ccc(O)cc4CCC3C1CCC2O (stereo not drawn) [11β-OH-E2, 11β-Hydroxyestradiol]",,,< 6.00,,< 6.00,
